Source: US5348953A, “Substituted azetidinones as anti-inflammatory and antidegenerative agents” (Merck & Co., Inc., priority 1992, dated 1994)
Like-named read-outs stand apart in the source and are kept apart here.

What was measured:
[1] = molecular target: T1, HUMAN PROTEINASE 3 (Homo sapiens, UniProt P24158); experiment: Inhibition of PR3 catalyzed hydrolysis of MeO-Succ-AAPV-pNA; type: biochemical; conditions: 45 mM TES pH 7.5, 450 mM NaCl, 10% DMSO; 0.2 mM substrate (TABLE 2); read-out: SORC (second order rate constant, kobs/I)
T1 sequence (P24158 28-256): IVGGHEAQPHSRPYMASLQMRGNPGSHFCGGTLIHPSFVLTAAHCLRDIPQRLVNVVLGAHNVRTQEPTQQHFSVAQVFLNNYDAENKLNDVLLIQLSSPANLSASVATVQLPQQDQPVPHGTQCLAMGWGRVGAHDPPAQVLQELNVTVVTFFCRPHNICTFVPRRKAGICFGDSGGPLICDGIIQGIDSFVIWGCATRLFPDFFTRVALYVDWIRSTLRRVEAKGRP
Method: The PR3 catalyzed hydrolysis of MeO-Succ-AAPV-pNA was measured in a spectrophotometer monitoring absorbance at 410 n,m. The enzymatic activity was determined in 45 mM TES at pH 7.5, 450 mM NaCl and 10% DMSO. The data were fit by non-linear regression to equation 1 to obtain the initial rates. The nonlinear progress curves observed with time dependent inhibitors were fit to equation 2 to obtain the first order rate constant Kobs. Results were expressed as kobs/I which is the second order rate constant (SORC) in per mole per second for inactivation of the enzyme.
EQN 2 Y=vs *X+[(vo -vs) (1-e^(-K.sbsp.o^*X))/Ko
Kinetic constants for the inhibition of PR3 catalyzed hydrolysis of 0.2 mM MoO-succ-AAPV-pNA were determined by varying the concentration of inhibitor present in the reaction vessel.

[2] = Extended storage of the L-malic acid salt at rt; type: physicochemical
Description: NMR (CDCl3 δ from TMS): 0.9-1.0 (m, 6H), 1.0-1.1 (m, 6H), 1.2-1.4 (m, 2H), 1.6-1.95(2 m's, 6H), 2.30 (s, 3H), 2.6-2.9 (2 m's, 4H), 2.92 and 2.94 (2 s, 3H), 3.2-3.4 (m, 2H), 3.52 (br t, 2H, J=8 Hz), 4.5-4.8 (m, 3H), 5.11 (br s, 1H), 7.04 (2 d's, 1H, J=8Hz), 7.13 (br S, 4H).
The material prepared as described above in Example 20, Step A was hydrogenated as described in Example 19, Step B to afford the L-malic acid salt of 2-(S)-[2-[[2-aminoethyl]-ethylamino]-2-oxoethoxy]-3,3-diethyl-N-[1-(R)-(4- methylphenyl)butyl]-4-oxo-1-azetidinecarboxamide as an oil. […] This process could be evaluated by HPLC analysis.

[3] = molecular target: T2, Human Polymorphonuclear Leukocyte Elastase (Homo sapiens, UniProt P08246); experiment: Inhibition of human polymorphonuclear leukocyte elastase via hydrolysis of Boc-AAPAN or Boc-AAPVN; type: biochemical; conditions: pH 7.5, Formula A, M n-propyl, read-out: kobs /[I]
T2 construct: Crude extract of human polymorphonuclear leukocytes (PMN) containing elastase activity; from tissue; host or cells: human polymorphonuclear leukocytes (crude extract)
T2 sequence (P08246 30-267): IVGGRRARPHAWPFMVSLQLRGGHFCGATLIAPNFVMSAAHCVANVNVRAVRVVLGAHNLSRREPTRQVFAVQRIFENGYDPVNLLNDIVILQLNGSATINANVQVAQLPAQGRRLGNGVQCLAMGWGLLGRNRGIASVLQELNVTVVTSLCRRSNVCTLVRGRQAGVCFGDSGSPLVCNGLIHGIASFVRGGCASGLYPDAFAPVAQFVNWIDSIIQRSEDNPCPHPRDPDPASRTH
Method: Enzyme Assays for the Inhibition of Human Polymorphonuclear Leukocyte
Elastase Via Hydrolysis of
N-t-Boc-alanyl-alanyl-prolylalanine-p-nitroanilide (Boc-AAPAN) or
N-t-Boc-alanyl-prolylvaline-p-nitroanilide (Boc-AAPVN) Reagent:
0.05M TES (N-tris[hydroxymethyl]methyl-2-amino-ethanesulfonic acid) Buffer, pH 7.5.
0.2 mM Boc-AAPAN or Boc-AAPVN.
To prepare substrate, the solid was first dissolved in 10.0 ml DMSO. Buffer at pH 7.5 was then added to a final volume of 100 ml.
Crude extract of human polymorphonuclear leukocytes (PMN) containing elastase activity.
Inhibitors (azetidinones) to be tested dissolved in DMSO just before use.
To 1.0 ml of 0.2 mM Boc-AAPAN in a cuvette, 0.01-0.1 ml of DMSO with or without inhibitor was added. After mixing, a measurement was taken at 410 mμ to detect any spontaneous hydrolysis due to presence of test compound. 0.05 Milliliters of PMN extract was then added and the ΔOD/min at 410 mμ was measured and recorded. Beckman model 35 spectrophotometer was used.
Results in Table I were reported as ID50, effective dosage in micrograms per milliliter (μg/ml) for 50% inhibition of the enzyme activity 2 minutes after zero time.
Results were also expressed as Ki, the micromolar concentration of the inhibitor (μM) giving 50% of the control enzyme activity; or as ^k obs/I which is the second order rate constant in per mole per second for inactivation of the enzyme.
The elastase activity in the crude PMN extract may vary from one preparation to another. A control of each new batch is run, and the volume added in the assay procedure is adjusted according to activity.

[4] = second order rate constant for inactivation, R2 4-methyl (TABLE 1)

kinact/KI [3, 4] [M⁻¹ s⁻¹] | SMILES | other results
– | CCC[C@@H](NC(=O)N1C(=O)C(CC)(CC)[C@@H]1OCC(=O)N(CC)CCN(C)CCOC)c1ccc(C)cc1 [2-(S)-[2-[[2-((2-Methoxyethyl)-methylamino)ethyl]ethylamino]-2-oxoethoxy]-3,3-diethyl-N-[1-(R)-(4methylphenyl)butyl]-4-oxo-1-azetidinecarboxamide] | kinact/KI [1]: 13700 M⁻¹ s⁻¹
– | CCC[C@@H](NC(=O)N1C(=O)C(CC)(CC)[C@@H]1OCC(=O)N(CC)CCNC)c1ccc(C)cc1 [Example 19, 2-(S)-[2-[[2-Methylaminoethyl]-ethylamino]-2-oxoethoxy]-3,3-diethyl-N-[1-(R)-(4-methylphenyl)butyl]-4-oxo-1-azetidinecarboxamide] | stability upon storage [2]: rearranges to an isomeric equilibrium mixture
– | CCC[C@@H](NC(=O)N1C(=O)C(CC)(CC)[C@@H]1OCC(=O)N(CC)CCN)c1ccc(C)cc1 [Example 20, 2-(S)-[2-[[2-Aminoethyl]-ethylamino]-2-oxoethoxy]-3,3-diethyl-N-[1-(R)-(4-methylphenyl)butyl]-4-oxo-1-azetidinecarboxamide] | stability upon storage [2]: rearranged upon storage to an equilibrium mixture of isomers
– | CCC[C@@H](NC(=O)N1C(=O)C(CC)(CC)[C@@H]1OCC(=O)N1CCN(C)CC1)c1ccc(C)cc1 [R2=4-Me; R5=H; Z=--Me, 2-(S)-[2-[2-(4-Methyl)piperazin-1-yl]-2-oxoethoxy]-3,-3-diethyl-N-[1-(R)-(4-methylphenyl)-butyl]4-oxo-1-azetidinecarboxamide] | kinact/KI ([3]; second order rate constant, R4 piperazine amide with substituent Z): 150000 M⁻¹ s⁻¹; kinact/KI [1]: 14800 M⁻¹ s⁻¹
120000 | CCC[C@@H](NC(=O)N1C(=O)C(CC)(CC)[C@@H]1OCC(=O)N(CC)CCN(C)C)c1ccc(C)cc1 [Y=N(Et)CH2 CH2; R5=H; R7=Me; R8=Me, 2-(S)-[2-[[2-(Dimethylamino)ethyl]ethylamino]-2-oxoethoxy]-3,3-diethyl-N-[1-(R)-(4-methylphenyl)butyl]-4-oxo-1-azetidinecarboxamide] | kinact/KI [1]: 7900 M⁻¹ s⁻¹
115000 | CCC[C@@H](NC(=O)N1C(=O)C(CC)(CC)[C@@H]1OCC(=O)N(C)CCN(C(C)C)C(C)C)c1ccc(C)cc1 [Y=N(Me)CH2 CH2; R5=H; R7=iPr; R8=iPr, 2-(S)-[2-[[2-(Diisopropylamino)ethyl]methylamino]-2-oxoethoxy]-3,3-diethyl-N-[1-(R)-(4-methylphenyl)butyl]-4-oxo-1-azetidinecarboxamide] | –
1.8e+06 | CCC[C@@H](NC(=O)N1C(=O)C(CC)(CC)[C@@H]1O[C@@H](C)C(=O)N(C)CCN(CC)CC)c1ccc(C)cc1 [Y=N(Me)CH2 CH2; R5=Me; R7=Et; R8=Et, 2-(S)-[2-[[2-(Diethylamino)ethyl]methylamino]-2-oxo-(1-(S)-methyl)ethoxy]-3,3-diethyl-N-[1-(R)-(4-methylphenyl)butyl]-4-oxo-1-azetidinecarboxamide] | –
1.65e+06 | CCC[C@@H](NC(=O)N1C(=O)C(CC)(CC)[C@@H]1O[C@@H](C)C(=O)N(C)CCN(C)C)c1ccc(C)cc1 [Y=N(Me)CH2 CH2; R5=Me; R7=Me; R8=Me, 2-(S)-[2-[[2-(Dimethylamino)ethyl]methylamino]-2-oxo-(1-(S)-methyl)ethoxy]-3,3-diethyl-N-[1-(R)-(4-methylphenyl)butyl]-4-oxo-l-azetidinecarboxamide] | –
170000 | CCC[C@@H](NC(=O)N1C(=O)C(CC)(CC)[C@@H]1OCC(=O)N(CCC)CCN(CC)CC)c1ccc(C)cc1 [Y=N(Pr)CH2 CH2; R5=H; R7=Et; R8=Et, 2-(S)-[2-[[2-(Diethylamino)ethyl]propylamino]-2-oxoethoxy]-3,3-diethyl-N-[1-(R)-(4-methylphenyl)butyl]-4-oxo-1-azetidinecarboxamide] | –
175000 | CCC[C@@H](NC(=O)N1C(=O)C(CC)(CC)[C@@H]1OCC(=O)N(CCN(CC)CC)C(C)C)c1ccc(C)cc1 [Y=N(iPr)CH2 CH2; R5=H; R7=Et; R8=Et] | –
175000 | CCC[C@@H](NC(=O)N1C(=O)C(CC)(CC)[C@@H]1OCC(=O)N(CCN(C)C)C(C)C)c1ccc(C)cc1 [Y=N(iPr)CH2 CH2; R5=H; R7=Me; R8=Me] | –
115000 | CCC[C@@H](NC(=O)N1C(=O)C(CC)(CC)[C@@H]1OCC(=O)NCCN1CCOCC1)c1ccc(C)cc1 [Y=NHCH2 CH2; R5=H; R7 R8=CH2 CH2OCH2 CH2, 2-(S)-[2-[[2-(morpholin-1-yl)ethyl]amino]-2-oxoethoxy]-3,3-diethyl-N-[1-(R)-(4-methylphenyl)butyl]-4-oxo-1-azetidinecarboxamide] | –
220000 | CCC[C@@H](NC(=O)N1C(=O)C(CC)(CC)[C@@H]1OCC(=O)NCCN(CC)CC)c1ccc(C)cc1 [Y=NHCH2 CH2; R5=H; R7=Et; R8=Et, 2-(S)-[2-[[2-(Diethylamino)ethyl]amino]-2-oxoethoxy]-3,3-diethyl-N-[1-(R)-(4-methylphenyl)butyl]-4-oxo-1-azetidinecarboxamide] | –
105000 | CCC[C@@H](NC(=O)N1C(=O)C(CC)(CC)[C@@H]1OCC(=O)NCCN(C(C)C)C(C)C)c1ccc(C)cc1 [Y=NHCH2 CH2; R5=H; R7=iPr; R8=iPr, 2-(S)-[2-[[2-(Diisopropylamino)ethyl]amino]-2-oxoethoxy]-3,3-diethyl-N-[1-(R)-(4-methylphenyl)butyl]-4-oxo-1-azetidinecarboxamide] | –
1.35e+06 | CCC[C@@H](NC(=O)N1C(=O)C(CC)(CC)[C@@H]1O[C@@H](C)C(=O)NCCN(CC)CC)c1ccc(C)cc1 [Y=NHCH2 CH2; R5=Me; R7=Et; R8=Et, 2-(S)-[2-[[2-(Diethylamino)ethyl]amino]-2-oxo-(1-(S)-methyl)ethoxy]-3,3-diethyl-N-[1-(R)-(4-methyl-phenyl)butyl]-4-oxo-l-azetidinecarboxamide] | –
1.04e+06 | CCC[C@@H](NC(=O)N1C(=O)C(CC)(CC)[C@@H]1O[C@@H](C)C(=O)NCCN(C)C)c1ccc(C)cc1 [Y=NHCH2 CH2; R5=Me; R7=Me; R8=Me, 2-(S)-[2-[[2-(Dimethylamino)ethyl]amino]-2-oxo-(1-(S)-methyl)ethoxy]-3,3-diethyl-N-[1-(R)-(4-methylphenyl)butyl]-4-oxo-1-azetidinecarboxamide] | –
315000 | CCC[C@@H](NC(=O)N1C(=O)C(CC)(CC)[C@@H]1OCC(=O)N(CC)CC)c1ccc(C)cc1 [Y=co-valent bond; R5=H; R7=Et; R8=Et] | –
125000 | CCC[C@@H](NC(=O)N1C(=O)C(CC)(CC)[C@@H]1OCC(=O)N(C)C)c1ccc(C)cc1 [Y=co-valent bond; R5=H; R7=Me; R8=Me] | –
